Results taken from patent US8906944B2, “Compounds as tyrosine kinase modulators” (Allergan, Inc., priority 2009, dated 2014).

Key:
Type in all cases: biochemical
PDGFβ = PDGFβ (Homo sapiens, UniProt P09619); test: PDGFβ enzyme assay; settings: Table IV, amide or urea linker
[1] = biological target: T1, human VEGF receptor (VEGFR-2) (Homo sapiens, UniProt P35968); test: VEGFR2 kinase assay; settings: His-VEGFR-2 cytoplasmic domain, 3.6 μM ATP; Table IV, amide or urea linker; read-out: VEGFR2 Enzyme IC50
T1 construct: The cytoplasmic domain of the human VEGF receptor (VEGFR-2) was expressed; His; made in house; host or cells: insect cells (baculovirus)
T1 sequence (P35968 786-1356 limits assumed): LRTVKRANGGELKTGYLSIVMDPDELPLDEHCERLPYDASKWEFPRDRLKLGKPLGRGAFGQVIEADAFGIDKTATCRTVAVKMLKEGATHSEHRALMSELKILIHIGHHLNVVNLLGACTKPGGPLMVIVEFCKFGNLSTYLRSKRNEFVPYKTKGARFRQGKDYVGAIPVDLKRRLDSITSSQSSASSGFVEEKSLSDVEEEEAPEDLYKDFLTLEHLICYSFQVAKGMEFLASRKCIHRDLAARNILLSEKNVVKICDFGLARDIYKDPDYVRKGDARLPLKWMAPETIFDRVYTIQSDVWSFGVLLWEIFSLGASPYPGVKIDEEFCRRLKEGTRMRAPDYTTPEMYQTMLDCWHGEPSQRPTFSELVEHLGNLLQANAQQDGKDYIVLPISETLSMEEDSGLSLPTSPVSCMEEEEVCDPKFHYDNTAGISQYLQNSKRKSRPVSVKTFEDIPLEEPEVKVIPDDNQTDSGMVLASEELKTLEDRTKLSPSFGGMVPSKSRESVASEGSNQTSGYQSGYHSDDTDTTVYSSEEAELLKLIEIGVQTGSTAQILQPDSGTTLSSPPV
Description: The cytoplasmic domain of the human VEGF receptor (VEGFR-2) was expressed as a Histidine-tagged fusion protein following infection of insect cells using an H is engineered baculovirus. […] Kinase assays were performed in 96 well microtiter plates that were coated overnight with 30 µg of poly-Glu-Tyr (4:1) in 10 mM Phosphate Buffered Saline (PBS), pH 7.2-7.4. The plates were incubated with 1% BSA and then washed four times with PBS prior to starting the reaction. Reactions were carried out in 120 µL reaction volumes containing 3.6 µM ATP in kinase buffer (50 mM Hepes buffer pH 7.4, 20 mM MgCl2, 0.1 mM MnCl2 and 0.2 mM Na3 VO4). […] Reactions were initiated by the addition 0.5 ng of purified protein. Following a ten minute incubation at 25 degree. […] IC50 values for compound inhibition were calculated directly from graphs of optical density (arbitrary units) versus compound concentration following subtraction of blank values.

VEGFR1 = VEGFR1 (Homo sapiens, UniProt P17948); test: VEGFR1 enzyme assay; settings: Table IV, amide or urea linker
Chain of VEGFR1 (P17948 27-1338, species assumed): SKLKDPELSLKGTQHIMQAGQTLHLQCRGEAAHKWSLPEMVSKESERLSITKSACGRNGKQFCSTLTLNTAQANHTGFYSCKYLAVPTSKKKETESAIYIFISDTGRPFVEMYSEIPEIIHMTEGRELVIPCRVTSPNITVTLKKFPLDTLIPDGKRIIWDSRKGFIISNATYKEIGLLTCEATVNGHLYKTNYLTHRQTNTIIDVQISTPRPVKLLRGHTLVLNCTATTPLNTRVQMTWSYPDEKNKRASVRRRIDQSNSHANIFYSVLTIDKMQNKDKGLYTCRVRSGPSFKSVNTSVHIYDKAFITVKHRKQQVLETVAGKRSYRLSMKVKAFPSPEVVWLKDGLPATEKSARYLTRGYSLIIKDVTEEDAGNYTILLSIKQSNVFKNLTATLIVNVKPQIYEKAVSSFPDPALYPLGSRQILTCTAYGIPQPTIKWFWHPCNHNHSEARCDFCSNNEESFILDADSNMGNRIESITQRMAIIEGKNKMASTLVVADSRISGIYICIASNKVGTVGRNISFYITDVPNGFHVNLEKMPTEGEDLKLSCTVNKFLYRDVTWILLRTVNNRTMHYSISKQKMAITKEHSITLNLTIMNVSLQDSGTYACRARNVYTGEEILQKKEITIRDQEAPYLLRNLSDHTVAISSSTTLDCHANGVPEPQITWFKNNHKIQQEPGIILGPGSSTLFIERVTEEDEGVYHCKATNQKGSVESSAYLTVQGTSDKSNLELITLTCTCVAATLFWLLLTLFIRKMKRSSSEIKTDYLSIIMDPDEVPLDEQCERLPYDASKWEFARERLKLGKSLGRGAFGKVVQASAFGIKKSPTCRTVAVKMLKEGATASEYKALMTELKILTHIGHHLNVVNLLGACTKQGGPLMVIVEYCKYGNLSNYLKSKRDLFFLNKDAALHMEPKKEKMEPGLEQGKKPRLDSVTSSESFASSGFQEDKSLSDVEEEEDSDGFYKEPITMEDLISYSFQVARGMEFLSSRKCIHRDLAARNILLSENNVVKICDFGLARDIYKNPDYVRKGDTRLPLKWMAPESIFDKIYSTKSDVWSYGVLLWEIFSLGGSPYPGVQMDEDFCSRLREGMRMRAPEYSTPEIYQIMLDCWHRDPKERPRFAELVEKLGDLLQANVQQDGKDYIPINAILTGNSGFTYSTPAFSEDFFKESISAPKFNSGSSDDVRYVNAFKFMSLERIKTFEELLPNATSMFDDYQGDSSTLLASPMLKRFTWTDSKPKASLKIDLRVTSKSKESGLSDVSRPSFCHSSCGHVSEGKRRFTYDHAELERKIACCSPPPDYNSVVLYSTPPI

Chain of PDGFβ (P09619 33-1106): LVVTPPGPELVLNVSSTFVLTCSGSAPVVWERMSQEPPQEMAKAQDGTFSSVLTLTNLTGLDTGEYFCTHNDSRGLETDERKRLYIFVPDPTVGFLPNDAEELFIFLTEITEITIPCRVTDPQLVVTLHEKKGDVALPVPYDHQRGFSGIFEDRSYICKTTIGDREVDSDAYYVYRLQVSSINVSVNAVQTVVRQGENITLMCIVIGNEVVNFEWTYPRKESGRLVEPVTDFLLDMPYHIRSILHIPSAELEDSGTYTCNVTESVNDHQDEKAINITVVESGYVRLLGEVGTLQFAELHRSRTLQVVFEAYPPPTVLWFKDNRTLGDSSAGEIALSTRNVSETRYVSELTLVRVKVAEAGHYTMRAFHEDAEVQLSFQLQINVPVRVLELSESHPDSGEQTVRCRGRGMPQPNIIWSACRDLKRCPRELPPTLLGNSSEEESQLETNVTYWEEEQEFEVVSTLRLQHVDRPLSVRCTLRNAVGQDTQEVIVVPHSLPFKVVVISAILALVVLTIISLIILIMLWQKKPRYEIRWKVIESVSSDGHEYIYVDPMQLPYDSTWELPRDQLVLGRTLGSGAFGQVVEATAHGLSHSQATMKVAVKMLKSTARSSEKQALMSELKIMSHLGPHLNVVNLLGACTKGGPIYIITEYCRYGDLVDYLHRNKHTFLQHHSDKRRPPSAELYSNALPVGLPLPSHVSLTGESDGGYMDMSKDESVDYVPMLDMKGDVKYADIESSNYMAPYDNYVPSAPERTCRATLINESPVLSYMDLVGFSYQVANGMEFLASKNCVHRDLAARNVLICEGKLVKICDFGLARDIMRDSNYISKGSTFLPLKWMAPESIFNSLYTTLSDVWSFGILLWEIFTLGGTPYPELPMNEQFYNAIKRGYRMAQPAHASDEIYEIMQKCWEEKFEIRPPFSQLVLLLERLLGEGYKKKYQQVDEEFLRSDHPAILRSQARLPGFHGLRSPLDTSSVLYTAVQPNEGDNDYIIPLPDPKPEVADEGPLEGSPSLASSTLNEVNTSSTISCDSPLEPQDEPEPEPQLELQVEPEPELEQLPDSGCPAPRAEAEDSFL

Compound | IC50 (PDGFβ) [nM] | IC50 [1] [nM] | IC50 (VEGFR1) [nM]
Cc1ccc(F)c(NC(=O)Nc2ccc(Oc3ccnc(-c4cc(C(=O)NCCCC(=O)NN)c[nH]4)c3)cc2)c1 [Example 177, 5-{4-[4-({[(2-fluoro-5-methylphenyl)amino]carbonyl}amino)phenoxy]pyridin-2-yl}-N-(4-hydrazino-4-oxobutyl)-1H-pyrrole-3-carboxamide] |  | 15 | 
COC(=O)CN(CCCNC(=O)c1c[nH]c(-c2cc(Oc3cc(C(=O)Nc4cc(C)ccc4F)ccc3F)ccn2)c1)CC(=O)OC [Example 178, dimethyl 2,2′-({3-[({5-[4-(2-fluoro-5-{[(2-fluoro-5-methylphenyl)amino]carbonyl}phenoxy)pyridin-2-yl]-1H-pyrrol-3-yl}carbonyl)amino]propyl}imino)diacetate] |  | 24 | 60
Cc1ccc(F)c(NC(=O)c2ccc(F)c(Oc3ccnc(-c4cc(C(=O)NCCN)c[nH]4)c3)c2)c1 [Example 182, N-(2-aminoethyl)-5-[4-(2-fluoro-5-{[(2-fluoro-5-methylphenyl)amino]carbonyl}phenoxy)pyridin-2-yl]-1H-pyrrole-3-carboxamide] |  | 33 | 86
Cc1ccoc1C(=O)Nc1cc(Oc2ccnc(-c3cc(C(=O)NCCCN4CCCC4)c[nH]3)c2)ccc1F [Example 192, 5-(4-{4-fluoro-3-[(3-methyl-2-furoyl)amino]phenoxy}pyridin-2-yl)-N-(3-pyrrolidin-1-ylpropyl)-1H-pyrrole-3-carboxamide] |  | 26 | 34
Cc1ccoc1C(=O)Nc1cc(Oc2ccnc(-c3cc(C(=O)NCCCN4CCOCC4)c[nH]3)c2)ccc1F [Example 194, 5-(4-{4-fluoro-3-[(3-methyl-2-furoyl)amino]phenoxy}pyridin-2-yl)-N-(3-morpholin-4-ylpropyl)-1H-pyrrole-3-carboxamide] |  | 23 | 25
Cc1ccc(F)c(NC(=O)Nc2ccc(Oc3ccnc(-c4cc(C(=O)N5CCN(C(=O)OC(C)(C)C)CC5)c[nH]4)c3)cc2F)c1 [Example 224, tert-butyl 4-[(5-{4-[3-fluoro-4-({[(2-fluoro-5-methylphenyl)amino]carbonyl}amino)phenoxy]pyridin-2-yl}-1H-pyrrol-3-yl)carbonyl]piperazine-1-carboxylate] |  | 10 | 21
Cc1ccc(F)c(NC(=O)Nc2ccc(Oc3ccnc(-c4cc(C(=O)NCCCN5CCCC5)c[nH]4)c3)cc2F)c1 [Example 226, 5-{4-[3-fluoro-4-({[(2-fluoro-5-methylphenyl)amino]carbonyl}amino)phenoxy]pyridin-2-yl}-N-(3-pyrrolidin-1-ylpropyl)-1H-pyrrole-3-carboxamide] |  | 6 | 9
Cc1cccc(NC(=O)Nc2ccc(Oc3ccnc(-c4cc(C(=O)OCC(CO)(CO)CO)c[nH]4)c3)cc2)c1 [Example 240, 3-hydroxy-2,2-bis(hydroxymethyl)propyl 5-{4-[4-({[(3-methylphenyl)amino]carbonyl}amino)phenoxy]pyridin-2-yl}-1H-pyrrole-3-carboxylate] |  | 7 | 
Cc1ccoc1C(=O)Nc1cccc(Oc2ccnc(-c3cc(C(=O)N[C@@H](CCC(=O)OC(C)(C)C)C(=O)O)c[nH]3)c2)c1 [Example 266, 5-tert-butoxy-2-({[5-(4-{3-[(3-methyl-2-furoyl)amino]phenoxy}pyridin-2-yl)-1H-pyrrol-3-yl]carbonyl}amino)-5-oxopentanoic acid] |  | 31 | 

The remaining compounds from weak to strong by IC50 [1], led by results:

IC50 (PDGFβ) [nM] | IC50 [1] [nM] | IC50 (VEGFR1) [nM] | Compound
 | 25 | 42 | Cc1ccoc1C(=O)Nc1cc(Oc2ccnc(-c3cc(C(=O)NCCCN4CCCCC4)c[nH]3)c2)ccc1F [Example 191, 5-(4-{4-fluoro-3-[(3-methyl-2-furoyl)amino]phenoxy}pyridin-2-yl)-N-(3-piperidin-1-ylpropyl)-1H-pyrrole-3-carboxamide]
 | 24 | 100 | Cc1ccc(F)c(NC(=O)c2ccc(F)c(Oc3ccnc(-c4cc(C(=O)NCCNC(=O)OC(C)(C)C)c[nH]4)c3)c2)c1 [Example 183, tert-butyl {2-[({5-[4-(2-fluoro-5-{[(2-fluoro-5-methylphenyl)amino]carbonyl}phenoxy)pyridin-2-yl]-1H-pyrrol-3-yl}carbonyl)amino]ethyl}carbamate]
 | 21 | 50 | COC(=O)CN(CCNC(=O)c1c[nH]c(-c2cc(Oc3cc(C(=O)Nc4cc(C)ccc4F)ccc3F)ccn2)c1)CC(=O)OC [Example 179, dimethyl 2,2′-({2-[({5-[4-(2-fluoro-5-{[(2-fluoro-5-methylphenyl)amino]carbonyl}phenoxy)pyridin-2-yl]-1H-pyrrol-3-yl}carbonyl)amino]ethyl}imino)diacetate]
 | 19 |  | Cc1ccc(F)c(NC(=O)Nc2ccc(Oc3ccnc(-c4cc(C(=O)NCCCN5CCC(O)CC5)c[nH]4)c3)cc2)c1 [Example 272, 5-{4-[4-({[(2-fluoro-5-methylphenyl)amino]carbonyl}amino)phenoxy]pyridin-2-yl}-N-[3-(4-hydroxypiperidin-1-yl)propyl]-1H-pyrrole-3-carboxamide]
 | 19 |  | Cc1cccc(NC(=O)c2ccc(F)c(Oc3ccnc(-c4cc(C(=O)NCCC(=O)O)c[nH]4)c3)c2)c1 [Example 275, 3-[({5-[4-(2-fluoro-5-{[(3-methylphenyl)amino]carbonyl}phenoxy)pyridin-2-yl]-1H-pyrrol-3-yl}carbonyl)amino]propanoic acid]
 | 18 |  | CCNC(=O)[C@H](CCC(=O)OC(C)(C)C)NC(=O)c1c[nH]c(-c2cc(Oc3cccc(NC(=O)c4occc4C)c3)ccn2)c1 [Example 265, tert-butyl 5-(ethylamino)-4-({[5-(4-{3-[(3-methyl-2-furoyl)amino]phenoxyl}pyridin-2-yl)-1H-pyrrol-3-yl]carbonyl}amino)-5-oxopentanoate]
 | 15 |  | Cc1ccc(F)c(NC(=O)Nc2ccc(Oc3ccnc(-c4cc(C(=O)NCCCN5CCC(C(=O)O)C5)c[nH]4)c3)cc2)c1 (stereo not drawn) [Example 268, 1-(3-{[(5-{4-[4-({[(2-fluoro-5-methylphenyl)amino]carbonyl}amino)phenoxy]pyridin-2-yl}-1H-pyrrol-3-yl)carbonyl]amino}propyl)pyrrolidine-3-carboxylic acid]
 | 13 |  | COC(=O)CCNC(=O)c1c[nH]c(-c2cc(Oc3cc(C(=O)Nc4cccc(C)c4)ccc3F)ccn2)c1 [Example 277, methyl 3-[({5-[4-(2-fluoro-5-{[(3-methylphenyl)amino]carbonyl}phenoxy)pyridin-2-yl]-1H-pyrrol-3-yl}carbonyl)amino]propanoate]
 | 9 | 11 | COCCOC(=O)c1c[nH]c(-c2cc(Oc3ccc(NC(=O)Nc4cc(C)ccc4F)c(F)c3)ccn2)c1 [Example 227, 2-methoxyethyl 5-{4-[3-fluoro-4-({[(2-fluoro-5-methylphenyl)amino]carbonyl}amino)phenoxy]pyridin-2-yl}-1H-pyrrole-3-carboxylate]
42 | 8 |  | COC(=O)CCNC(=O)c1c[nH]c(-c2cc(Oc3ccc(NC(=O)Nc4cccc(C)c4)c(F)c3)ccn2)c1 [Example 174, methyl 3-{[(5-{4-[3-fluoro-4-({[(3-methylphenyl)amino]carbonyl}amino)phenoxy]pyridin-2-yl}-1H-pyrrol-3-yl)carbonyl]amino}propanoate]
